Measured values published in ChEMBL document CHEMBL1149524 (Bioorg Med Chem Lett, 2006).
Values after ≈ are worked out from the molar mass of the structure shown.

Columns and labels:
Cathepsin S = Cathepsin S (Homo sapiens, UniProt P25774); test: Inhibition of cathepsin S; assay type: single protein
Cathepsin K = molecular target: T1, Cathepsin K (Homo sapiens, UniProt P43235); test: Inhibition of cathepsin K; assay type: single protein
T1 sequence (P43235 whole entry): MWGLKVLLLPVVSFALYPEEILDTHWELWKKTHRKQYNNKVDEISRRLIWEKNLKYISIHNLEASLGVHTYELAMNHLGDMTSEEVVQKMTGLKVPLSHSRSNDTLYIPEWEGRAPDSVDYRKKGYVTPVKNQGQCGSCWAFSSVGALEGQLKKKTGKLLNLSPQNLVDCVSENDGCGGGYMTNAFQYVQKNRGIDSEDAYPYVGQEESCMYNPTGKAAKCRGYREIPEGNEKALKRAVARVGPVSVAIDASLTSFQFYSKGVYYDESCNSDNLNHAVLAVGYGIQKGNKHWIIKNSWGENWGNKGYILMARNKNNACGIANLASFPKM

Procathepsin L = Procathepsin L (Homo sapiens, UniProt P07711)
Description: Inhibition of cathepsin L

Cathepsin F = molecular target: T2, Cathepsin F (Homo sapiens, UniProt Q9UBX1); test: Inhibition of cathepsin F
T2 sequence (Q9UBX1 whole entry): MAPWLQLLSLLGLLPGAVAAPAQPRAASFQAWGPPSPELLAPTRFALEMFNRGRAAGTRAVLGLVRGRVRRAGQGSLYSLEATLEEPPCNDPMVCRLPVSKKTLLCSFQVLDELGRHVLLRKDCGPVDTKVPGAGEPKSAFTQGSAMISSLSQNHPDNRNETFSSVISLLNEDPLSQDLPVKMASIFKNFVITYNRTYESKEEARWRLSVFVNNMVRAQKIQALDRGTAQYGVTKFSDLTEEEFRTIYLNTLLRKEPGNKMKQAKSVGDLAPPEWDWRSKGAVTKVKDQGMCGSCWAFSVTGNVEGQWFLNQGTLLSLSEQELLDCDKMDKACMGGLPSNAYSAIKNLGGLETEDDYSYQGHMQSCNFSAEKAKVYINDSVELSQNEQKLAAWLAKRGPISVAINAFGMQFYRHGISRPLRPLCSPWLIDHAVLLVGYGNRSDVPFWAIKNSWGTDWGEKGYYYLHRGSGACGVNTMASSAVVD

Pro-cathepsin H = molecular target: T3, Pro-cathepsin H (Homo sapiens, UniProt P09668); test: Inhibition of cathepsin H
T3 sequence (P09668 whole entry): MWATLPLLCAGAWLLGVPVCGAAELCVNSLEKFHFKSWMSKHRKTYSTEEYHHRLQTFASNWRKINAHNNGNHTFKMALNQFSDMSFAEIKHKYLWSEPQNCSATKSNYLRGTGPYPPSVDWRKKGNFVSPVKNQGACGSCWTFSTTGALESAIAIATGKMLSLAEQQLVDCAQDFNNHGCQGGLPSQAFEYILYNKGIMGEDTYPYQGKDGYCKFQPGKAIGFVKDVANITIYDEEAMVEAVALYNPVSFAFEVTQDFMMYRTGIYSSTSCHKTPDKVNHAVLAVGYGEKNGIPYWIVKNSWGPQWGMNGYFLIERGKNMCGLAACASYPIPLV

Cathepsin L2 = molecular target: T4, Cathepsin L2 (Homo sapiens, UniProt O60911); test: Inhibition of cathepsin V
T4 sequence (O60911 whole entry): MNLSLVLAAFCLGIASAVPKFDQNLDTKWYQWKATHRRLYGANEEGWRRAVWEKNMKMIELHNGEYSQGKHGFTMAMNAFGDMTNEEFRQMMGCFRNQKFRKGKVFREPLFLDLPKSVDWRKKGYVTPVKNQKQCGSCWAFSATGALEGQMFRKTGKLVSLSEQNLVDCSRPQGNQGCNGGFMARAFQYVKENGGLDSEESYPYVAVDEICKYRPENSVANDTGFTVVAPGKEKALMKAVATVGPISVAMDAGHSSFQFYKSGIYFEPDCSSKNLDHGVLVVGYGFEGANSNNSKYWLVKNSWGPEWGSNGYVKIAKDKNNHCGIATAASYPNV

Cathepsin Z = Cathepsin Z (Homo sapiens, UniProt Q9UBR2); test: Inhibition of cathepsin X
Cathepsin B = Cathepsin B (Homo sapiens, UniProt P07858); test: Inhibition of cathepsin B
[1] = Solubility at pH 6.8; assay type: physicochemical; details: buffer
Liver microsomes = test: Stability in rat liver microsomes; assay type: ADME, Microsome
[2] = Half life in Wistar rat at 3 mg/kg, iv; assay type: ADME, organism-based; parameters: dose 3 mg/kg, route intravenous; details: in vivo
[3] = Clearance in Wistar rat at 3 mg/kg, iv; assay type: ADME, organism-based; parameters: dose 3 mg/kg, route intravenous; details: in vivo
[4] = Volume of distribution in Wistar rat at 3 mg/kg, iv; assay type: ADME, organism-based; parameters: dose 3 mg/kg, route intravenous; details: in vivo, read-out: Vdss
[5] = Half life in Wistar rat at 10 mg/kg, po; assay type: ADME, organism-based; parameters: dose 10 mg/kg, route oral; details: in vivo
[6] = Cmax in Wistar rat at 10 mg/kg, po; assay type: ADME, organism-based; parameters: dose 10 mg/kg, route oral; details: in vivo
[7] = AUC in Wistar rat at 10 mg/kg, po; assay type: ADME, organism-based; parameters: dose 10 mg/kg, route oral; details: plasma
[8] = Bioavailability in Wistar rat at 10 mg/kg, po; assay type: ADME, organism-based; details: in vivo

Cathepsin S, sequence (P25774 whole entry): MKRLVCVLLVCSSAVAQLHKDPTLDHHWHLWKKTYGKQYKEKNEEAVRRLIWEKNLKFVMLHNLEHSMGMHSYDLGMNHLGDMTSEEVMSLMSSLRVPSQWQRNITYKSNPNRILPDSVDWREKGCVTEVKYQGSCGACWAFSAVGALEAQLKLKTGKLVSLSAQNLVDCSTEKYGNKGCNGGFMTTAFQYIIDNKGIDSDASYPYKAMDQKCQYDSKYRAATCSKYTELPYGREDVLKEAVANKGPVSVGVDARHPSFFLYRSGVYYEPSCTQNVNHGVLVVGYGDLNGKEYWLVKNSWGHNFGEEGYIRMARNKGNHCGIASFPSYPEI
Procathepsin L, sequence (P07711 whole entry): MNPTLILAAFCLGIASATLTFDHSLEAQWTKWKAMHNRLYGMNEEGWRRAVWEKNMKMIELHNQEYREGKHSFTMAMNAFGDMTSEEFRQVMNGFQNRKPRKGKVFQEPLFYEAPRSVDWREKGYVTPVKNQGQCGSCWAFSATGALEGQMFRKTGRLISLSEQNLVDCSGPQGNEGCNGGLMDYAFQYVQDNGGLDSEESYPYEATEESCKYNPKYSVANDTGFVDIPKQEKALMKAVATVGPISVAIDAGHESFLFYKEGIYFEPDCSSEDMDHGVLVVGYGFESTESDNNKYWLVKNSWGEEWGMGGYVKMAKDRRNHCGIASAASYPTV
Cathepsin Z, sequence (Q9UBR2 whole entry): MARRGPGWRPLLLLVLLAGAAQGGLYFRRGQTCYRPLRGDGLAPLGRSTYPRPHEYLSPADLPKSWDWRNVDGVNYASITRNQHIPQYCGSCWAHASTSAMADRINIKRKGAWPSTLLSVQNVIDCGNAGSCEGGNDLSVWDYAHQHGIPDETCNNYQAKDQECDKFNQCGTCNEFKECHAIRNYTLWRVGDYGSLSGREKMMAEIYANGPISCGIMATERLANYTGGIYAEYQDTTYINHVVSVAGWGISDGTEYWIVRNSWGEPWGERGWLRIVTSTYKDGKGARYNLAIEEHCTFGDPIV

| SMILES | Ki (Cathepsin S) [nM] | Ki (Cathepsin K) [nM] | Ki (Procathepsin L) [nM] | further results |
| --- | --- | --- | --- | --- |
| O=C(NCCNc1ccc(OC(F)(F)F)cc1)[C@H](Cc1ccccc1)NC(=O)N1CCOCC1 | 11400 | > 100000 | > 100000 |  |
| C[C@@H](CNc1ccc(OC(F)(F)F)cc1)NC(=O)[C@H](CC1CCCCC1)NC(=O)N1CCOCC1 | 11 | 1660 |  |  |
| C[C@@H](CNc1ccc(OC(F)(F)F)cc1)NC(=O)[C@H](CS(=O)(=O)Cc1ccccc1)NC(=O)N1CCOCC1 |  | > 100000 | > 30000 | Ki (Cathepsin F): > 30000 nM; Ki (Pro-cathepsin H): > 30000 nM; Ki (Cathepsin L2): > 30000 nM; Ki (Cathepsin Z): > 30000 nM; Ki (Cathepsin B): > 30000 nM; solubility [1]: 43 µg/mL (≈ 75.1 µM); Stability (Liver microsomes): 100%; half-life [2]: 0.817 h; clearance [3]: 39 mL/min/kg; Vd [4]: 0.87 L/kg; half-life [5]: 1.1 h; Cmax [6]: 639 nM; AUC [7]: 700 ng·h/mL; bioavailability [8]: 16% |
| C[C@@H](CNc1ccc(OC(F)(F)F)cc1)NC(=O)[C@H](CC1CCCCC1)NC(=O)[C@H]1CCCO1 | 18 | 4610 |  | solubility [1]: 25 µg/mL (≈ 51.5 µM); Stability (Liver microsomes): 66%; half-life [2]: 1.1 h; clearance [3]: 35 mL/min/kg; Vd [4]: 1.78 L/kg; half-life [5]: 0.967 h; Cmax [6]: 1240 nM; AUC [7]: 1750 ng·h/mL; bioavailability [8]: 36% |
| C[C@@H](CNc1ccc(OC(F)(F)F)cc1)NC(=O)[C@H](CC(C)(C)C)NC(=O)N1CCOCC1 | 93 | 461 | 14600 |  |
| CC[C@@H](CNc1ccc(OC(F)(F)F)cc1)NC(=O)[C@H](CC1CCCCC1)NC(=O)N1CCOCC1 | 11 | 130 | 6 |  |
| C[C@@H](CNc1ccc(OC(F)(F)F)cc1)NC(=O)[C@H](CC1CCCC1)NC(=O)N1CCOCC1 | 49 | 1540 |  |  |
| C[C@@H](CN1c2ccc(F)cc2CC1(C)C)NC(=O)[C@H](CC1CCCCC1)NC(=O)N1CCOCC1 | 111 | 13100 |  |  |
| C[C@@H](CNc1ccc(OC(F)(F)F)cc1)NC(=O)[C@H](CC1CCCCC1)NC(=O)C1CCOC1 (stereo partly drawn) | 21 | > 30000 | 4790 | solubility [1]: 30 µg/mL (≈ 61.8 µM); Stability (Liver microsomes): 56%; half-life [2]: 1.8 h; clearance [3]: 39 mL/min/kg; Vd [4]: 2.48 L/kg; half-life [5]: 1.5 h; Cmax [6]: 491 nM; AUC [7]: 817 ng·h/mL; bioavailability [8]: 19% |
| O=C(NCCNc1ccc(OC(F)(F)F)cc1)[C@H](CC1CCCCC1)NC(=O)[C@H]1CCCO1 | 658 | > 30000 | 3120 |  |
| COc1ccc(NCCNC(=O)[C@H](CC2CCCCC2)NC(=O)c2ccc(-c3cccc(C(F)(F)F)c3)o2)cc1 |  |  |  | solubility [1]: < 1 µg/mL; Stability (Liver microsomes): 12%; half-life [5]: 2.43 h; Cmax [6]: 19 nM; AUC [7]: 50 ng·h/mL |
| O=C(N[C@@H](CC1CCCCC1)C(=O)NCCNc1ccc(OC(F)(F)F)cc1)c1ccc(-c2cccc(F)c2)o1 | 34 | 11700 |  |  |
| O=C(N[C@@H](CC1CCCCC1)C(=O)NCCNc1ccc(OC(F)(F)F)cc1)c1ccco1 | 47 | 8810 | 1150 |  |
| COc1ccc(NCCNC(=O)[C@H](CC2CCCCC2)Nc2nc3ccccc3o2)cc1 |  |  |  | solubility [1]: 10 µg/mL (≈ 22.9 µM); Stability (Liver microsomes): 4%; bioavailability [8]: < 1% |
| CS(=O)(=O)CC[C@@H](CNc1ccc(OC(F)(F)F)cc1)NC(=O)[C@H](CC1CCCCC1)NC(=O)N1CCOCC1 | 5 | 139 | 4 |  |
| O=C(NCCNc1ccc(OC(F)(F)F)cc1)[C@H](CC1CCCCC1)NC(=O)N1CCOCC1 | 99 | 18800 |  |  |
| C[C@@H](CN1CC(C)(C)c2cc(F)ccc21)NC(=O)[C@H](CC1CCCCC1)NC(=O)N1CCOCC1 | 11 | 16900 | 810 | solubility [1]: 10 µg/mL (≈ 20.5 µM); Stability (Liver microsomes): < 1% |
| C[C@@H](CNc1ccc(OC(F)(F)F)cc1)NC(=O)[C@H](CC1CCCCC1)NC(=O)OC1CCOCC1 | 12 | 13300 |  |  |
| C[C@@H](CNc1ccc(OC(F)(F)F)cc1)NC(=O)[C@H](CC1CCCCC1)NC(=O)O[C@@H]1CCOC1 | 42 | > 30000 | 2570 |  |
| O=C(N[C@@H](CC1CCCCC1)C(=O)NCCNc1ccc(OC(F)(F)F)cc1)c1ccoc1 | 6 | 9340 |  |  |
| C[C@@H](CN1CCc2cc(F)ccc21)NC(=O)[C@H](CC1CCCCC1)NC(=O)N1CCOCC1 | 87 | 5130 |  |  |

Second part, led by results:

| Ki (Cathepsin S) [nM] | Ki (Cathepsin K) [nM] | Ki (Procathepsin L) [nM] | SMILES | further results |
| --- | --- | --- | --- | --- |
| 17 | 150 |  | O=C(N[C@@H](CC1CCCCC1)C(=O)NCCNc1ccc(OC(F)(F)F)cc1)c1cc2ccccc2o1 |  |
| 12 | 14300 |  | C[C@@H](CNc1ccc(OC(F)(F)F)cc1)NC(=O)[C@H](CC1CCCCC1)NC(=O)C1CCOCC1 |  |
| 12 | 2480 |  | C[C@@H](CNc1ccc(OC(F)(F)F)cc1)NC(=O)[C@H](CSCc1ccccc1)NC(=O)N1CCOCC1 |  |
| 213 | > 30000 | 7940 | O=C(N[C@@H](CC1CCCCC1)C(=O)NCCNc1ccc(OC(F)(F)F)cc1)C1CCOC1 (stereo partly drawn) |  |
| 53 | > 30000 |  | C[C@@H](CNc1ccc(OC(F)(F)F)cc1)NC(=O)[C@H](CC1CCCCC1)NC(=O)[C@@H]1CCCO1 |  |
| 11 | 8580 |  | O=C(N[C@@H](CC1CCCCC1)C(=O)NCCNc1ccc(OC(F)(F)F)cc1)c1ccc(-c2cccc(C(F)(F)F)c2)o1 |  |
| 220 | 1330 | > 30000 | CC(C)(C)C[C@H](NC(=O)N1CCOCC1)C(=O)NCCNc1ccc(OC(F)(F)F)cc1 |  |
| 49 | > 30000 | 594 | C[C@@H](CNc1ccc(OC(F)(F)F)cc1)NC(=O)[C@H](CC1CCCCC1)NC(=O)O[C@H]1CCOC1 |  |
